Measured values as given in ChEMBL document CHEMBL1212849, “The design, synthesis, and evaluation of 8 hybrid DFG-out allosteric kinase inhibitors: a structural analysis of the binding interactions of Gleevec, Nexavar, and BIRB-796” (Bioorg Med Chem, 2010).
pIC50: −log10 of the molar value.

Experiments:
[1] = target: Serine/threonine-protein kinase B-raf (Homo sapiens, UniProt P15056)
Description: Inhibition of human recombinant full-length GST-tagged B-Raf by radiometric kinase assay

[2] = target: Tyrosine-protein kinase ABL1 (Mus musculus, UniProt P00520)
Description: Inhibition of mouse recombinant N-terminal His6-tagged Abl by radiometric kinase assay

[3] = target: Mitogen-activated protein kinase 14 (Homo sapiens, UniProt Q16539); experiment: Inhibition of human recombinant full-length N-terminal GST-tagged p38alpha expressed in Escherichia coli by radiometric kinase assay
Mitogen-activated protein kinase 14, sequence (Q16539 whole entry): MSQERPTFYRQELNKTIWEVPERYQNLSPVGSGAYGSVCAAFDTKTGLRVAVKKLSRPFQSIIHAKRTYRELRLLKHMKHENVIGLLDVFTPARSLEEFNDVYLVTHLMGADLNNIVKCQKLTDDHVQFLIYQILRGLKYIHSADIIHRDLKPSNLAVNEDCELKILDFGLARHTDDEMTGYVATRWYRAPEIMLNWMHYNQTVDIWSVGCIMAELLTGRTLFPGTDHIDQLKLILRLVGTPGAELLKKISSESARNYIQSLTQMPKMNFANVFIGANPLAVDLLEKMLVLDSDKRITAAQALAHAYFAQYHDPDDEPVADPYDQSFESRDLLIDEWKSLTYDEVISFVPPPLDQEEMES

Serine/threonine-protein kinase B-raf, sequence (P15056 whole entry): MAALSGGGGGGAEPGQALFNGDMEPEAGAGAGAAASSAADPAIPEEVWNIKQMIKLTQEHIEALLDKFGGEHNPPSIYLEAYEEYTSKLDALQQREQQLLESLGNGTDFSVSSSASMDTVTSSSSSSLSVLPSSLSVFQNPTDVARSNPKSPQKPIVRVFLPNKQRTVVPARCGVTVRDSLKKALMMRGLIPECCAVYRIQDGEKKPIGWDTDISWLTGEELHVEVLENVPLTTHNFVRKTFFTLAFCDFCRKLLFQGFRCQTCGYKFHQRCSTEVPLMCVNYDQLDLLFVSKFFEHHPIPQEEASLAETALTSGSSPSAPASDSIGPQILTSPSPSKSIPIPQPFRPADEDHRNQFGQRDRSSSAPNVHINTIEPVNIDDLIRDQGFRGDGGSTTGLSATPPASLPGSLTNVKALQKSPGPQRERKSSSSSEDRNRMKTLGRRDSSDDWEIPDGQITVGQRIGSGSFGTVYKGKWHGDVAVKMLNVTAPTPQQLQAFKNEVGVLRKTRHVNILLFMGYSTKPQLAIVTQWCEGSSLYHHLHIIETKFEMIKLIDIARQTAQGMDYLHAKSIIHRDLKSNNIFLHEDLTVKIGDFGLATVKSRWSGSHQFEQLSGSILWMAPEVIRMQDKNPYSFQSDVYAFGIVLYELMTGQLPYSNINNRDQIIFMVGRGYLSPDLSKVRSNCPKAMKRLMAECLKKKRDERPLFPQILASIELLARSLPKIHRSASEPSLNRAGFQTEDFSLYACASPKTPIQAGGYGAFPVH
Tyrosine-protein kinase ABL1, sequence (P00520 whole entry): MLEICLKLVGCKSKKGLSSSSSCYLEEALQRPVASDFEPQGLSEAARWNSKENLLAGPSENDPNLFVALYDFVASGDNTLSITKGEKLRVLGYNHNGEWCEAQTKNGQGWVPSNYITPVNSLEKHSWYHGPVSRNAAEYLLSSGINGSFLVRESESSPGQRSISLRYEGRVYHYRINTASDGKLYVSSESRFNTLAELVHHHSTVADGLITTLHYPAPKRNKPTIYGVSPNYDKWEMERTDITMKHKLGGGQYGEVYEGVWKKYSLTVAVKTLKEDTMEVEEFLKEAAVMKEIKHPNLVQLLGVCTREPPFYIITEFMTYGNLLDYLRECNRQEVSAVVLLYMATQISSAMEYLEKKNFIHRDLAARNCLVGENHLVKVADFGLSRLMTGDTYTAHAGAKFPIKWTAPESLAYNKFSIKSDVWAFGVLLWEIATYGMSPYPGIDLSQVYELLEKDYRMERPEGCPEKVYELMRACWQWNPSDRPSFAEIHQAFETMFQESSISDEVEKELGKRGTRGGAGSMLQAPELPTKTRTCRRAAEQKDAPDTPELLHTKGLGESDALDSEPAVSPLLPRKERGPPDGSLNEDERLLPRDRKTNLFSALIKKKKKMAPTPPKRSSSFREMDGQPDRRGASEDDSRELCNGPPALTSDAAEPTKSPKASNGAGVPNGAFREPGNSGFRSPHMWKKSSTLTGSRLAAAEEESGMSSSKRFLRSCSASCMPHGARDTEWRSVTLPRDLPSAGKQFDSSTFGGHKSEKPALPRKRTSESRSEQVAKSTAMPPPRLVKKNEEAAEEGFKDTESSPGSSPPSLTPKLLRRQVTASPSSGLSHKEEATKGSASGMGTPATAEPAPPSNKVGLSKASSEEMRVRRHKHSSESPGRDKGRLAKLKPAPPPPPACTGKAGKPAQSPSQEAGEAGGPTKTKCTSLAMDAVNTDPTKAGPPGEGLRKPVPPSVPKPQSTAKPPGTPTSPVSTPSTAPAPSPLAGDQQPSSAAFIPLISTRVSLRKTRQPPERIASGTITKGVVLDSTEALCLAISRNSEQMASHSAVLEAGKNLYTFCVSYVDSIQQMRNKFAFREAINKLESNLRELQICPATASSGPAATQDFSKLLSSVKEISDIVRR

Row | SMILES | pIC50 [1] | pIC50 [2] | pIC50 [3]
1 | CNC(=O)c1cc(Oc2ccc(NC(=O)c3ccc(CN4CCN(C)CC4)cc3)cc2)ccn1 | < 4.00 | < 4.52 | < 4.00
2 | CN1CCN(Cc2ccc(C(=O)Nc3ccc(OCCN4CCOCC4)c4ccccc34)cc2)CC1 | < 4.00 | < 4.52 | < 4.00
3 | Cc1ccc(NC(=O)Nc2ccc(Cl)c(C(F)(F)F)c2)cc1Nc1nccc(-c2cccnc2)n1 | 6.74 | > 9.00 | 7.74
4 | O=C(Nc1ccc(Cl)c(C(F)(F)F)c1)Nc1ccc(OCCN2CCOCC2)c2ccccc12 | > 9.00 | 4.89 | –
5 | Cc1ccc(-n2nc(C(C)(C)C)cc2NC(=O)Nc2ccc(C)c(Nc3nccc(-c4cccnc4)n3)c2)cc1 | 6.38 | 8.07 | 6.72
6 | CNC(=O)c1cc(Oc2ccc(NC(=O)Nc3cc(C(C)(C)C)nn3-c3ccc(C)cc3)cc2)ccn1 | 6.63 | 7.20 | –
7 | CNC(=O)c1cc(Oc2ccc(NC(=O)Nc3ccc(CN4CCN(C)CC4)cc3)cc2)ccn1 | < 4.00 | 6.24 | < 4.00
8 | O=C(Nc1ccc(OCCN2CCOCC2)cc1)Nc1ccc(Cl)c(C(F)(F)F)c1 | 7.03 | 6.61 | 6.98
